From US4738971A, “N-aryl-1,2-dihydro-4-substituted-1-alkyl-2-oxo-quinoline-3-carboxamides” (priority 1981, dated 1988)

Experiments:
[1] = system: carrageenan-induced edema; test: carrageenan edema test in rats; format: in vivo, rat (female Sprague-Dawley); details: for change in vivo at 80 mg/kg: Rattus norvegicus, po, 80 mg/kg p.o., 30 min before carrageenan, edema weight 3 h after, vs control, preliminary, read-out: Potentiation of the carrageenan edema, %; for significant potentiation of the carrageenan edema: dose within the range 10-160 mg/kg p.o.
From the text: Another test, in which the effect of a drug corresponds to the effects obtained in the tests mentioned above, and which can therefore also be used, is the well-established carrageenan edema test in rats (5). Comparative evaluation of compounds of the present invention in the three tests mentioned has shown that compounds which increase the extent of the delayed hypersensitivity reaction in the pertussis vaccine pleurisy test and in the adjuvant arthritis test also increase the extent of carrageenan-induced edema in the carrageenan edema test, thus providing a further tool for the determination of enhancement of cell-mediated immunity.
This example illustrates the effect of the compounds of the general formula I in the carrageenan edema test in rats.
A modification of a method described in (5) was used. Female Sprague-Dawleyrats weighing 110-120 g was used. At least 10 animals were used in each experimental group. Foot edema was induced by injecting carrageenan in 0.9% NaCl into the plantar surface of the right hind paw of the rats.
The substances suspended in aqueous methocel solution 10 ml/kg were administered intragastrically 30 minutes before the injection of carrageenan. The control groups were given methocel solution 10 ml/kg.
Three hours after carrageenan injection the animals were killed. The hind feet were cut off and weighed. The difference in weight of the injected right paw and the uninjected left paw was called edema weight.
The effect of the substances was assessed by the edema weight expressed in percent after comparison with the control groups.

[2] = system: delayed hypersensitivity reaction (pertussis vaccine pleurisy); test: pertussis vaccine pleurisy test in rats; format: in vivo, rat (male Sprague-Dawley); details: 10 mg/kg p.o.; for change in vivo at 10 mg/kg: Rattus norvegicus, po, 48 h, once daily day 10 to day 13, vs control, preliminary, read-out: Enhancement of the delayed hypersensitivity reaction assessed by the exudate vol.
From the text: A useful test for the evaluation of the effect of chemical compounds on the immune system is the pertussis vaccine pleurisy test in rats. Compounds which enhance the response in this delayed hypersensitivity reaction are considered to stimulate cell-mediated immunity (4).
This example illustrates the effect of the compounds of the general formula I in the pertussis vaccine pleurisy test.
Pertussis vaccine pleurisy is a useful test for the evaluation of the effect of chemical compounds on the immune system. Compounds which enhance the response in this delayed hypersensitivity reaction are considered to stimulate cell-mediated immunity.
A modification of a method described in (4) was used. Male Sprague-Dawley rats weighing 250-275 g were used. At least ten animals were used in each group.
Equal volumes of Freund's incomplete adjuvant and a suspension of heat killed Bordetella pertussis organisms were mixed. To sensitize animals, day 0, 0.2 ml of a mixture containing 0.036×10^10 organisms/ml was injected into the dorsal surface of one hind paw and one forepaw.
The animals were challenged on day 12 with 0.1 ml of a mixture containing 0.25×10^10 organisms/ml that was injected intrapleurally. 48 hours after challenge, day 14, the volume of the exudate in the pleural cavity was measured.
The substances suspended in aqueous methocel solution 10 ml/kg were given intragastrically once daily from day 10 to day 13. The control groups were given methocel solution 10 ml/kg.
The effect of the substances was assessed by the exudate volume expressed in percent after comparison with the control groups.

Row | Compound | significant enhancing effect in the pertussis vaccine pleurisy test [2] | other results
1 | Cn1c(=O)c(C(=O)Nc2ccccn2)c(O)c2ccccc21 [7:2, N-/2-pyridyl/-1,2-dihydro-4-hydroxy-1-methyl-2-oxo-quinoline-3-carboxamide] |  | change in vivo at 80 mg/kg [1]: 44%
2 | CCN(CC)c1ccc(N(C)C(=O)c2c(O)c3ccccc3n(C)c2=O)cc1 [20:20, N-methyl-N-/4-diethylaminophenyl/-1,2-dihydro-4-hydroxy-1-methyl-2-oxo-quinoline-3-carboxamide] | significant enhancing effect | 
3 | Cc1cc(N(C)C(=O)c2c(O)c3ccccc3n(C)c2=O)sn1 [20:78, N-methyl-N-(3-methyl-5-isothiazolyl)-1,2-dihydro-4-hydroxy-1-methyl-2-oxo-quinoline-3-carboxamide] | significant enhancing effect | 
4 | Cn1c(=N)c(C(=O)Nc2ccccc2)c(O)c2ccccc21 [11:1, N-phenyl-1,2-dihydro-4-hydroxy-2-imino-1-methyl-quinoline-3-carboxamide] |  | change in vivo at 80 mg/kg [1]: 46%
5 | CN(C(=O)c1c(O)c2ccccc2n(C)c1=O)c1ccc(C(=O)O)cc1 [21:13, N-(4-carboxyphenyl)-N-methyl-1,2-dihydro-4-hydroxy-1-methyl-2-oxo-quinoline-3-carboxamide] | significant enhancing effect | 
6 | CN(C(=O)c1c(N)c2ccccc2n(C)c1=O)c1nccs1 [10:17, N-methyl-N-(2-thiazolyl)-4-amino-1,2-dihydro-1-methyl-2-oxo-quinoline-3-carboxamide] | significant enhancing effect | 
7 | Cc1ccc2c(c1)c(O)c(C(=O)Nc1ccccc1)c(=O)n2C [1:46, N-phenyl-1,2-dihydro-1,6-dimethyl-4-hydroxy-2-oxo-quinoline-3-carboxamide] |  | change in vivo at 80 mg/kg [1]: 32%
8 | CNc1c(C(=O)N(C)c2ccccc2)c(=O)n(C)c2ccccc12 [10:6, N-methyl-N-phenyl-1,2-dihydro-1-methyl-4-methylamino-2-oxo-quinoline-3-carboxamide] | significant enhancing effect | 
9 | COc1c(C(=O)Nc2ccccc2)c(=O)n2c3c(cccc13)CC2 [18:1, N-phenyl-1,2-dihydro-1,8-ethylene-4-methoxy-2-oxo-quinoline-3-carboxamide] |  | significant potentiation of the carrageenan edema [1]: potentiate significantly
10 | COc1c(C(=O)Nc2ccc(N(C)C)cc2)c(=O)n(C)c2ccccc12 [6:3, N-(4-dimethylaminophenyl)-1,2-dihydro-4-methoxy-1-methyl-2-oxo-quinoline-3-carboxamide] |  | change in vivo at 80 mg/kg [1]: 32%
11 | Cc1csc(NC(=O)c2c(O)c3ccccc3n(C)c2=O)n1 [7:3, N-/2-(4-methyl-thiazolyl)/-1,2-dihydro-4-hydroxy-1-methyl-2-oxo-quinoline-3-carboxamide] |  | change in vivo at 80 mg/kg [1]: 47%
12 | Cc1ccc(-n2c(=O)c(C(=O)Nc3ccccc3)c(O)c3ccccc32)cc1 [1:50, N-phenyl-1,2-dihydro-4-hydroxy-1-(4-methylphenyl)-2-oxo-quinoline-3-carboxamide] |  | change in vivo at 10 mg/kg [2]: 46%
13 | O=C(Nc1cccnn1)c1c(O)c2cc(O)cc3c2n(c1=O)CC3 [14:12, N-(3-pyridazinyl)-1,2-dihydro-4,6-dihydroxy-1,8-ethylene-2-oxo-quinoline-3-carboxamide] |  | significant potentiation of the carrageenan edema [1]: potentiate significantly
14 | CN(C(=O)c1c(O)c2ccccc2n(C)c1=O)c1ccc(N2CCCC2)cc1 [20:21, N-methyl-N-/4-pyrrolidinophenyl/-1,2-dihydro-4-hydroxy-1-methyl-2-oxo-quinoline-3-carboxamide] | significant enhancing effect | 
15 | CN(C(=O)c1c(O)c2cccc3c2n(c1=O)CCC3)c1ccc(F)cc1 [19:2, N-(4-fluorophenyl)-N-methyl-1,2-dihydro-hydroxy-2-oxo-1,8-trimethylene-quinoline-3-carboxamide] | significant enhancing effect | 
16 | CN(C(=O)c1c(N)c2ccccc2n(C)c1=O)c1ccccc1 [10:5, N-methyl-N-phenyl-4-amino-1,2-dihydro-1-methyl-2-oxo-quinoline-3-carboxamide] | significant enhancing effect | 
17 | Nc1c(C(=O)Nc2ccccc2)c(=O)n2c3c(cccc13)CC2 [10:20, N-phenyl-4-amino-1,2-dihydro-1,8-ethylene-2-oxo-quinoline-3-carboxamide] | significant enhancing effect | 
18 | O=C(Nc1cnccn1)c1c(O)c2cccc3c2n(c1=O)CCC3 [14:17, N-pyrazinyl-1,2-dihydro-4-hydroxy-2-oxo-1,8-trimethylene-quinoline-3-carboxamide] |  | change in vivo at 10 mg/kg [2]: 27%
19 | C=CCn1c(=O)c(C(=O)N(C)c2ccccc2)c(O)c2ccccc21 [20:1, N-methyl-N-phenyl-1,2-dihydro-1-allyl-4-hydroxy-2-oxo-quinoline-3-carboxamide] | significant enhancing effect | 
20 | COc1ccc(N(C)C(=O)c2c(N)c3ccccc3n(C)c2=O)cc1 [10:12, N-(4-methoxyphenyl)-N-methyl-4-amino-1,2-dihydro-1-methyl-2-oxo-quinoline-2-carboxamide] | significant enhancing effect | 
21 | CN(C(=O)c1c(O)c2ccc(Cl)cc2n(C)c1=O)c1ccccc1 [20:2, N-methyl-N-phenyl-7-chloro-1,2-dihydro-4-hydroxy-1-methyl-2-oxo-quinoline-3-carboxamide] | significant enhancing effect | 
22 | COc1ccc2c(c1)c(O)c(C(=O)N(C)c1ccc(Cl)cc1)c(=O)n2C [20:4, N-(4-chloro-phenyl)-N-methyl-1,2-dihydro-4-hydroxy-6-methoxy-1-methyl-2-oxo-quinoline-3-carboxamide] | significant enhancing effect | 
23 | CN(C)c1ccc(NC(=O)c2c(O)c3cccc4c3n(c2=O)CCC4)cc1 [13:7, N-(4-dimethylaminophenyl)-1,2-dihydro-4-hydroxy-2-oxo-1,8-trimethylene-quinoline-3-carboxamide] |  | change in vivo at 10 mg/kg [2]: 21%
24 | Cc1cc(NC(=O)c2c(O)c3ccccc3n(C)c2=O)sn1 [7:28, N-(3-methyl-5-isothiazolyl)-1,2-dihydro-4-hydroxy-1-methyl-2-oxo-quinoline-3-carboxamide] |  | change in vivo at 10 mg/kg [2]: 61%
25 | CN(C(=O)c1c(N)c2ccccc2n(C)c1=O)c1ccc(Cl)cc1 [10:13, N-(4-chlorophenyl)-N-methyl-4-amino-1,2-dihydro-1-methyl-2-oxo-quinoline-3-carboxamide] | significant enhancing effect | 
26 | Cn1c(=O)c(C(=O)Nc2ccc(O)cc2)c(O)c2ccccc21 [1:13, N-/4-hydroxyphenyl/-1,2-dihydro-4-hydroxy-1-methyl-2-oxo-quinoline-3-carboxamide] | significant enhancing effect | 
27 | CN(C)c1ccc2c(c1)c(O)c(C(=O)N(C)c1ccccc1)c(=O)n2C [20:3, N-methyl-N-phenyl-1,2-dihydro-6-dimethylamino-4-hydroxy-1-methyl-2-oxo-quinoline-3-carboxamide] | significant enhancing effect | 
28 | CN(C(=O)c1c(O)c2ccccc2n(C)c1=O)c1ncc[nH]1 [20:74, N-(2-imidazolyl)-N-methyl-1,2-dihydro-4-hydroxy-1-methyl-2-oxo-quinoline-3-carboxamide] | significant enhancing effect | 
29 | CN(C(=O)c1c(O)c2cccc3c2n(c1=O)CCC3)c1ccccc1 [19:1, N-methyl-N-phenyl-1,2-dihydro-4-hydroxy-2-oxo-1,8-trimethylene-quinoline-3-carboxamide] | significant enhancing effect | 
30 | COCCN(C(=O)c1c(O)c2ccccc2n(C)c1=O)c1cnccn1 [20:54, N-(2-methoxy-ethyl)-N-pyrazinyl-1,2-dihydro-4-hydroxy-1-methyl-2-oxo-quinoline-3-carboxamide] | significant enhancing effect | 
